Source: patent US20240158390A1, “OTHER HETEROAROMATIC COMPOUNDS HAVING ACTIVITY AGAINST RSV” (Janssen Sciences Ireland Unlimited Company, priority 2019, published 2024)

Key:
in vitro = assay type: cell-based; conditions: human
Procedure: (§1) Black 384-well clear-bottom microtiter plates (Corning, Amsterdam, The Netherlands) were filled via acoustic drop ejection using the echo liquid handler (Labcyte, Sunnyvale, California). 200 nL of compound stock solutions (100% DMSO) were transferred to the assay plates. 9 serial 4-fold dilutions of compound were made, creating per quadrant the same compound concentration. The assay was initiated by adding 10 μL of culture medium to each well (RPMI medium without phenol red, 10% FBS-heat inactivated, 0.04% gentamycin (50 mg/mL). All addition steps are done by using a multidrop dispenser (Thermo Scientific, Erembodegem, Belgium). Next, rgRSV224 virus (MOI=1) diluted in culture medium was added to the plates. rgRSV224 virus is an engineered virus that includes an additional GFP gene (Hallak LK, Spillmann D, Collins PL, Peeples ME. Glycosaminoglycan sulfation requirements for respiratory syncytial virus infection; Journal of virology (2000), 74(22), 10508-13) and was in-licensed from the NIH (Bethesda, MD, USA). Finally, 20 μL of a HeLa cell suspension (3,000 cells/well) were plated. Medium, virus- and mock-infected controls were included in each test. The wells contain 0.05% DMSO per volume. Cells were incubated at 37° C. in a 5% CO2 atmosphere. Three days post-virus exposure, viral replication was quantified by measuring GFP expression in the cells by an in house developed MSM laser microscope (Tibotec, Beerse, Belgium). The EC50 was defined as the 50% inhibitory concentration for GFP expression. In parallel, compounds were incubated for three days in a set of white 384-well microtiter plates (Corning) and the cytotoxicity of compounds in HeLa cells was determined by measuring the ATP content of the cells using the ATPlite kit (Perkin Elmer, Zaventem, Belgium) according to the manufacturer's instructions. The CC50 was defined as the 50% concentration for cytotoxicity.

rgRSV224 virus = experiment: Antiviral activity: rgRSV224 (GFP) replication in HeLa cells; assay type: cell-based; conditions: human respiratory syncytial virus, 72 h, read-out: RSV HELA EC50 (μM)
Procedure: as §1

SMILES | CC50 at 3 days (in vitro) | EC50 (rgRSV224 virus)
C[C@@H]1c2ccccc2CCN1C(=O)c1cc(C2CC2)c2c(n1)nc(-c1ccc(C3C[C@H]3C(=O)O)cc1F)n2C (relative stereo) [Compound 13, (Trans)-2-(4-(7-cyclopropyl-1-methyl-5-((R)-1-methyl-1,2,3,4-tetrahydroisoquinoline-2-carbonyl)-1H-imidazo[4,5-b]pyridin-2-yl)-3-fluorophenyl)cyclopropane-1-carboxylic acid] | > 100 µM | 22.4 µM
C[C@@H]1c2ccccc2CCN1C(=O)c1cc(C2CC2)c2nc(-c3ccc(C4C[C@@H]4C(=O)O)cc3F)n(C)c2c1 (relative stereo) [Compound 14, Cis-2-(4-{4-cyclopropyl-1-methyl-6-[(1R)-1-methyl-1,2,3,4-tetrahydroisoquinoline-2-carbonyl]-1H-1,3-benzodiazol-2-yl}-3-fluorophenyl)cyclopropane-1-carboxylic acid] | > 100 µM | 9.05 µM
C[C@@H]1c2ccccc2CCN1C(=O)c1cc(C2CC2)c2nc(-c3ccc(C4C[C@@H]4C(N)=O)cc3F)n(C)c2c1 (relative stereo) [Compound 15, Cis-2-(4-{4-cyclopropyl-1-methyl-6-[(1R)-1-methyl-1,2,3,4-tetrahydroisoquinoline-2-carbonyl]-1H-1,3-benzodiazol-2-yl}-3-fluorophenyl)cyclopropane-1-carboxamide] | 50.4 µM | 0.69 µM
C[C@@H]1c2ccccc2CCN1C(=O)c1cc(C2CC2)c2nc(-c3ccc(C4CC4C(=O)O)cc3F)n(C)c2n1 (stereo in doubt) [Compound 11, Trans 2-(4-{7-Cyclopropyl-3-methyl-5-[(1R)-1-methyl-1,2,3,4-tetrahydroisoquinoline-2-carbonyl]-3H-imidazo[4,5-b]pyridin-2-yl}-3-fluorophenyl)cyclopropane-1-carboxylic acid] | 76.8 µM | 0.52 µM
CCc1cc(C(=O)N2CCc3ccccc3[C@H]2C)nc2oc(-c3ccc(NC(=O)N4CC[C@@H](O)C4)cc3F)nc12 [Compound 1, (R)-N-(4-(7-ethyl-5-((R)-1-methyl-1,2,3,4-tetrahydroisoquinoline-2-carbonyl)oxazolo[5,4-b]pyridin-2-yl)-3-fluorophenyl)-3-hydroxypyrrolidine-1-carboxamide] | > 25 µM | 0.01 µM
C[C@@H]1c2ccccc2CCN1C(=O)c1cc(C2CC2)c2nc(-c3ccc(N4C[C@H](O)[C@@H](O)C4)cc3F)oc2n1 [Compound 2, (7-cyclopropyl-2-(4-((3 S,4S)-3,4-dihydroxypyrrolidin-1-yl)-2-fluorophenyl)oxazolo[5,4-b]pyridin-5-yl)((R)-1-methyl-3,4-dihydroisoquinolin-2(1H)-yl)methanone] | 26 µM | 0.02 µM
CCc1cc(C(=O)N2CCc3ccccc3[C@H]2C)cc2cc(-c3ccc(N4C[C@H](O)[C@@H](O)C4)cc3F)oc12 [Compound 3, (2-(4-((3S,4S)-3,4-dihydroxypyrrolidin-1-yl)-2-fluorophenyl)-7-ethylbenzofuran-5-yl)((R)-1-methyl-3,4-dihydroisoquinolin-2 (1H)-yl)methanone] | 24.2 µM | 0.25 µM
C[C@@H]1c2ccccc2CCN1C(=O)c1cc(C2CC2)c2cc(-c3ccc(N4C[C@H](O)[C@@H](O)C4)cc3F)sc2n1 [Compound 4, (4-cyclopropyl-2-(4-((3 S,4S)-3,4-dihydroxypyrrolidin-1-yl)-2-fluorophenyl)thieno[2,3-b]pyridin-6-yl)((R)-1-methyl-3,4-dihydroisoquinolin-2(1H)-yl)methanone] | 14.3 µM | 0.14 µM
C[C@@H]1c2ccccc2CCN1C(=O)c1cc(C2CC2)c2sc(-c3ccc(N4C[C@H](O)[C@@H](O)C4)cc3F)nc2n1 [Compound 5, (7-cyclopropyl-2-(4-((3 S,4S)-3,4-dihydroxypyrrolidin-1-yl)-2-fluorophenyl)thiazolo[4,5-b]pyridin-5-yl)((R)-1-methyl-3,4-dihydroisoquinolin-2(1H)-yl)methanone] | 33.3 µM | 0.73 µM
CCc1cc(C(=O)N2CCc3ccccc3[C@H]2C)nc2cc(-c3ccc(NC(=O)N4CC[C@@H](O)C4)cc3F)oc12 [Compound 6, (R)-N-(4-(7-ethyl-5-((R)-1-methyl-1,2,3,4-tetrahydroisoquinoline-2-carbonyl)furo[3,2-b]pyridin-2-yl)-3-fluorophenyl)-3-hydroxypyrrolidine-1-carboxamide] | > 100 µM | 0.07 µM
C[C@@H]1c2ccccc2CCN1C(=O)c1cc(C2CC2)c2nn(-c3ccc(NC(=O)N4CC[C@@H](O)C4)cc3F)cc2n1 [Compound 7, (R)-N-(4-(7-cyclopropyl-5-((R)-1-methyl-1,2,3,4-tetrahydroisoquinoline-2-carbonyl)-2H-pyrazolo[4,3-b]pyridin-2-yl)-3-fluorophenyl)-3-hydroxypyrrolidine-1-carboxamide] | 47.6 µM | 0.05 µM
C[C@@H]1c2ccccc2CCN1C(=O)c1cc(C2CC2)c2cc(-c3ccc([C@H]4C[C@@H]4C(=O)O)cc3F)[nH]c2c1 [Compound 8, (1 S,2S)-2-(4-(4-cyclopropyl-6-((R)-1-methyl-1,2,3,4-tetrahydroisoquinoline-2-carbonyl)-1H-indol-2-yl)-3-fluorophenyl)cyclopropane-1-carboxylic acid] | 20.9 µM | 2.04 µM
C[C@@H]1c2ccccc2CCN1C(=O)c1cc(C2CC2)c2cc(-c3ccc([C@H]4C[C@@H]4C(=O)O)cc3F)n(C)c2c1 [Compound 9, (1 S,2S)-2-(4-(4-cyclopropyl-1-methyl-6-((R)-1-methyl-1,2,3,4-tetrahydroisoquinoline-2-carbonyl)-1H-indol-2-yl)-3-fluorophenyl)cyclopropane-1-carboxylic acid] | 31.4 µM | 2.31 µM
C[C@@H]1c2ccccc2CCN1C(=O)c1cc(C2CC2)c2cc(-c3ccc(N4CC[C@@H](C(=O)O)C4)cc3F)n(C)c2c1 [Compound 10, (R)-1-(4-(4-cyclopropyl-1-methyl-6-((R)-1-methyl-1,2,3,4-tetrahydroisoquinoline-2-carbonyl)-1H-indol-2-yl)-3-fluorophenyl)pyrrolidine-3-carboxylic acid] | 21.1 µM | 2.64 µM
C[C@@H]1c2ccccc2CCN1C(=O)c1cc(C2CC2)c2nc(-c3ccc(N4CC[C@H](C(=O)O)C4)cc3F)n(C)c2n1 [Compound 12, Methyl (3S)-1-(4-{7-cyclopropyl-3-methyl-5-[(1R)-1-methyl-1,2,3,4-tetrahydroisoquinoline-2-carbonyl]-3H-imidazo[4,5-b]pyridin-2-yl}-3-fluorophenyl)pyrrolidine-3-carboxylic acid] | 63 µM | 0.43 µM
C[C@@H]1c2ccccc2CCN1C(=O)c1cc(C2CC2)c2nc(-c3ccc(N4CC[C@H](C(=O)O)C4)cc3F)n(C)c2c1 [Compound 16, (3S)-1-(4-{4-Cyclopropyl-1-methyl-6-[(1R)-1-methyl-1,2,3,4-tetrahydroisoquinoline-2-carbonyl]-1H-1,3-benzodiazol-2-yl}-3-fluorophenyl)pyrrolidine-3-carboxylic acid] | 65.3 µM | 0.61 µM
C[C@@H]1c2ccccc2CCN1C(=O)c1cc(C2CC2)c2nc(-c3ccc(N4CC[C@H](C(N)=O)C4)cc3F)n(C)c2c1 [Compound 17, (3S)-1-(4-{4-Cyclopropyl-1-methyl-6-[(1R)-1-methyl-1,2,3,4-tetrahydroisoquinoline-2-carbonyl]-1H-1,3-benzodiazol-2-yl}-3-fluorophenyl)pyrrolidine-3-carboxamide] | 39.6 µM | 0.17 µM
C[C@@H]1c2ccccc2CCN1C(=O)c1cc(C2CC2)c2nc(-c3ccc(NC(=O)N4CC[C@@H](O)C4)cc3F)n(C)c2c1 [Compound 18, (3R)-N-(4-{4-Cyclopropyl-1-methyl-6-[(1R)-1-methyl-1,2,3,4-tetrahydroisoquinoline-2-carbonyl]-1H-1,3-benzodiazol-2-yl}-3-fluorophenyl)-3-hydroxypyrrolidine-1-carboxamide] | 51.6 µM | 0.14 µM
C[C@@H]1c2ccccc2CCN1C(=O)c1cc(C2CC2)c2nn(-c3ccc(N)cc3F)cc2c1 [Compound 19, 4-{7-Cyclopropyl-5-[(1R)-1-methyl-1,2,3,4-tetrahydroisoquinoline-2-carbonyl]-2H-indazol-2-yl}-3-fluoroaniline] | 55.2 µM | 0.16 µM
C[C@@H]1c2ccccc2CCN1C(=O)c1cc(C2CC2)c2nn(-c3ccc(NC(=O)N4CC[C@H](O)C4)cc3F)cc2c1 [Compound 20, (3S)-N-(4-{7-Cyclopropyl-5-[(1R)-1-methyl-1,2,3,4-tetrahydroisoquinoline-2-carbonyl]-2H-indazol-2-yl}-3-fluorophenyl)-3-hydroxypyrrolidine-1-carboxamide] | 54.4 µM | 0.06 µM
